In PubChem BioAssay (NCI) one finds GI50 and TGI data, which are given here for eight molecules.

Among the test systems are A498 renal; HCT-116 colon; HOP-92 NSCLC; M14 melanoma; MDA-MB-435; OVCAR-8 ovarian; SK-MEL-5 melanoma; SNB-75 CNS; SW-620 colon; UACC-257 melanoma.
Assay in all cases: growth of human tumour cells (NCI), 48 h

Where “and” joins values, the source holds several entries; their conditions need not be identical. Equal values may be shown once.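 Interpolation was linear, between the two tested concentrations surrounding the appropriate level; five concentrations were tested over 48 hours in 96-well plates. Abbreviation: GI50, concentration required for 50% inhibition of growth. TGI denotes the concentration required for complete inhibition of growth.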 Some results are limits rather than exact numbers.

On to `COC(=O)Nc1nc2c(OC)c(OC)c(OC)cc2[nH]1`, for which the GI50 is 25.5 µM in the experiment with A498 renal; 10.1 µM in the experiment with HCT-116 colon; 20.9 µM in the experiment with HOP-92 NSCLC; 8.9 µM in the experiment with M14 melanoma; 2.09 µM in the experiment with MDA-MB-435; 38.7 µM in the experiment on OVCAR-8 ovarian. Moreover, the GI50 is 9.34 µM with SK-MEL-5 melanoma, 15.4 µM with SNB-75 CNS, 5.8 µM in the experiment with SW-620 colon and more than 100 µM with UACC-257 melanoma. Further, the TGI was more than 100 µM in the experiment on A498 renal; more than 100 µM in the experiment with HCT-116 colon; more than 91.4 µM in the experiment with HOP-92 NSCLC; more than 100 µM in the experiment with M14 melanoma; 5.71 µM with MDA-MB-435; more than 100 µM with OVCAR-8 ovarian. Also, the TGI with SK-MEL-5 melanoma was more than 100 µM; in the experiment with SNB-75 CNS, more than 92.6 µM; in the experiment on SW-620 colon, more than 100 µM; in the experiment with UACC-257 melanoma, more than 100 µM.

For `O=C(Cc1ccccc1)Nc1nnc(CCSCCc2nnc(NC(=O)Cc3ccccc3)s2)s1`, the GI50 in the experiment with A498 renal was 0.696 µM; in the experiment on HCT-116 colon, 59.8 µM; in the experiment with HOP-92 NSCLC, 4.5 µM; in the experiment on M14 melanoma it was 12.6 µM; in the experiment on MDA-MB-435, 58.2 µM; in the experiment on OVCAR-8 ovarian, 6.12 µM. The GI50 in the experiment with SK-MEL-5 melanoma was 58 µM; in the experiment on SNB-75 CNS it was 5.18 µM; with SW-620 colon, more than 100 µM; with UACC-257 melanoma, more than 100 µM. Also, the TGI with A498 renal was 31.9 µM; in the experiment on HCT-116 colon, more than 100 µM; in the experiment on HOP-92 NSCLC, 25.8 µM; with M14 melanoma it was more than 100 µM; in the experiment with MDA-MB-435, more than 100 µM; in the experiment on OVCAR-8 ovarian, more than 100 µM. Also, the TGI is more than 100 µM in the experiment with SK-MEL-5 melanoma, 24.3 µM in the experiment with SNB-75 CNS, more than 100 µM with SW-620 colon and more than 100 µM in the experiment with UACC-257 melanoma.

For `OC(COc1ccc(Cl)cc1Cl)CN1CCCC1` (configuration not stated), the TGI in the experiment on A498 renal was more than 100 µM; in the experiment with HCT-116 colon, more than 100 µM; with HOP-92 NSCLC it was more than 100 µM; in the experiment on M14 melanoma it was 41.1 µM; in the experiment with MDA-MB-435, more than 100 µM; with OVCAR-8 ovarian, more than 100 µM. Besides, the TGI in the experiment with SK-MEL-5 melanoma is more than 100 µM; with SNB-75 CNS, more than 100 µM; with SW-620 colon, more than 100 µM; with UACC-257 melanoma it was 60.2 µM.

For the molecule `Clc1ccccc1-c1nc2ccccc2[nH]1`, the GI50 in the experiment on A498 renal was 59.2 µM; in the experiment on HCT-116 colon, more than 100 µM; with HOP-92 NSCLC it was 42.1 µM; in the experiment on M14 melanoma it was more than 100 µM; in the experiment on MDA-MB-435 it was more than 100 µM; in the experiment with OVCAR-8 ovarian it was more than 100 µM. In addition, the GI50 in the experiment on SK-MEL-5 melanoma, with SNB-75 CNS, in the experiment on SW-620 colon and in the experiment on UACC-257 melanoma was more than 100 µM in each case. For the same molecule, the TGI in the experiment on A498 renal, in the experiment with HCT-116 colon, with HOP-92 NSCLC, in the experiment on M14 melanoma, in the experiment with MDA-MB-435 and with OVCAR-8 ovarian was more than 100 µM throughout. The TGI in the experiment on SK-MEL-5 melanoma, with SNB-75 CNS, with SW-620 colon and in the experiment on UACC-257 melanoma was more than 100 µM each time.

Take `CC(C)(C)c1ccc(C(=O)N/N=C/c2ccc(O)cc2O)cc1`: the GI50 with A498 renal was 1.27 µM; with HCT-116 colon, 0.281 µM; in the experiment with HOP-92 NSCLC, 1.65 µM; in the experiment with M14 melanoma, 0.409 µM; with MDA-MB-435 it was 0.806 µM; in the experiment with OVCAR-8 ovarian it was 0.54 µM. In addition, the GI50 with SK-MEL-5 melanoma is 0.913 µM; in the experiment on SNB-75 CNS, 0.584 µM; with SW-620 colon it was 0.62 µM; in the experiment on UACC-257 melanoma, 0.557 µM. For the same molecule, the TGI in the experiment on A498 renal is 6.09 µM; in the experiment on HCT-116 colon it was 11.5 µM; in the experiment on HOP-92 NSCLC, 13.7 µM; in the experiment with M14 melanoma it was 9.83 µM; in the experiment with MDA-MB-435, 21.6 µM; in the experiment with OVCAR-8 ovarian, more than 100 µM. The TGI was determined as 3.4 µM in the experiment with SK-MEL-5 melanoma, 13.6 µM in the experiment on SNB-75 CNS, 13.1 µM with SW-620 colon and 21.4 µM in the experiment on UACC-257 melanoma.

Regarding `COC(=O)[C@]12CC[C@@H](C)[C@H](C)[C@@H]1C1=CC[C@@H]3[C@@]4(C)C(c5ncon5)=C[C@@](C)(CO)C4=CC[C@@]3(C)[C@]1(C)CC2`, the GI50 in the experiment with A498 renal is 1.69 µM; in the experiment on HCT-116 colon, 1.68 µM; with HOP-92 NSCLC, 1.98 µM; in the experiment with M14 melanoma, 2.07 µM; in the experiment with MDA-MB-435, 1.72 µM; with OVCAR-8 ovarian, 3.41 µM. For the same molecule, the GI50 in the experiment on SK-MEL-5 melanoma was 1.88 µM; in the experiment with SNB-75 CNS, 1.62 µM; in the experiment with SW-620 colon, 1.96 µM; in the experiment on UACC-257 melanoma, 2.1 µM. The TGI in the experiment on A498 renal came to 3.42 µM; in the experiment on HCT-116 colon, 3.2 µM; with HOP-92 NSCLC it was 4.04 µM; in the experiment with M14 melanoma, 4.88 µM; with MDA-MB-435, 3.36 µM; with OVCAR-8 ovarian, 10.2 µM. Moreover, the TGI in the experiment with SK-MEL-5 melanoma was determined as 3.41 µM; in the experiment on SNB-75 CNS it was 4.33 µM; in the experiment on SW-620 colon, 3.85 µM; in the experiment with UACC-257 melanoma it was 4.34 µM.

As to `CC[C@](O)(C(=O)O)c1cc2n(c(=O)c1CO)Cc1cc3ccccc3nc1-2`, the GI50 with A498 renal is 0.015 µM and 0.0448 µM; in the experiment on HOP-92 NSCLC it was 0.163 µM; in the experiment with M14 melanoma, 0.0108 µM; in the experiment on MDA-MB-435, 0.101 µM; in the experiment on OVCAR-8 ovarian it was 0.0292 µM and 0.0262 µM and 0.0353 µM; in the experiment on SNB-75 CNS it was 0.00391 µM and 0.016 µM. In addition, the GI50 in the experiment with SW-620 colon is 0.0948 µM and 0.0713 µM and 0.025 µM; in the experiment on UACC-257 melanoma it was 0.0236 µM and 0.0374 µM and 0.0873 µM. Also, the TGI in the experiment on A498 renal was 0.114 µM and 0.261 µM and 0.145 µM; in the experiment on HCT-116 colon it was 0.622 µM; in the experiment on HOP-92 NSCLC, 5.67 µM and 0.567 µM; in the experiment on M14 melanoma it was 0.0511 µM and 0.181 µM; with MDA-MB-435, 0.632 µM and 0.516 µM; with SK-MEL-5 melanoma, 0.0383 µM and 0.156 µM and 0.0896 µM. The TGI in the experiment on SNB-75 CNS is 0.201 µM and 0.0714 µM and 0.343 µM; in the experiment with SW-620 colon, 25 µM and 34.1 µM; with UACC-257 melanoma, 0.278 µM and 0.953 µM and 0.582 µM.

`Cc1sc2nc(-c3ccccn3)c(/C=N/N=C(N)N)n2c1C`: the GI50 in the experiment on A498 renal was 11.8 µM; in the experiment with HCT-116 colon, 4.09 µM; in the experiment on HOP-92 NSCLC, 7.55 µM; with M14 melanoma, 7.28 µM; in the experiment on MDA-MB-435, 4.53 µM; in the experiment on OVCAR-8 ovarian, 6.65 µM. Moreover, the GI50 was 3.58 µM in the experiment with SK-MEL-5 melanoma, 21.2 µM with SNB-75 CNS, 4.5 µM with SW-620 colon and 10.7 µM in the experiment on UACC-257 melanoma. Also, the TGI was 24.4 µM in the experiment with A498 renal; 9.74 µM in the experiment with HCT-116 colon; 15.8 µM in the experiment with HOP-92 NSCLC; 12.1 µM with M14 melanoma; 10.1 µM with MDA-MB-435; 68.1 µM in the experiment on OVCAR-8 ovarian. The TGI with SK-MEL-5 melanoma is 8.13 µM; in the experiment on SNB-75 CNS, 47.4 µM; in the experiment with SW-620 colon, 13.5 µM; in the experiment on UACC-257 melanoma, 27 µM.
